Patent US10947542B2, “Nucleic acid simultaneously inhibiting expression of AR gene and mTOR gene” (CURIGIN CO., LTD., priority 2017, dated 2021)

Assays:
[1] = test system: DU145 cell line; assay: Cancer cell death by double target siRNA and anticancer agent, MTT cell viability; type: cell-based
Method: (§1) After incubating the DU145 cell line and the H460 cell line in 6-well plates respectively, we transfected the double target siRNA set 1 (si-AT1) according to the present disclosure thereto. Then, as 48 hours lapsed, the cells were treated with cisplatin 50 uM, etoposide 20 uM or Taxol 1 uM and were incubated for 16 hours. Thereafter, the cells were treated with 5 mg/mL MTT (Promega, Ltd.) and incubated for 4 hours, and then the medium was removed. The cells were treated with 150 μl of solubilization solution and stop solution and then were incubated at 37° C. for 4 hours. Absorbance of the reaction solution was measured at 570 nm and cell viability was calculated using the following equation. Cell viability=(Absorbance of experiment group at 570 nm/Absorbance of control at […])×100(%) [Equation 1]

[2] = test system: AR gene; assay: AR gene expression inhibition by siRNA transfection, RT-PCR/qPCR of mRNA (PC3 and h460 cell lines); type: cell-based, human; details: 80 pmole siRNA per well, 48 hours after transfection, normalized to GAPDH
Method: (§2) We dispensed PC3 and h460 cell lines into 12-well plates, and incubated the same at 37° C. and 5% CO2 condition in RPMI medium (Hyclone company) with 10% FBS (Hyclone company) until a cell confluent reaches 50%. Thereafter, 3 μl of lipofectamine 3000 (Invitrogen, Carlsbad, Calif., USA) was used to transfect the double target siRNA set 1 prepared in the Example 1 (si-AT 1) to the wells in which the cells were cultured at 80 pmole per well. Thus, AR and mTOR were knocked down simultaneously. In addition, siRNA to AR and siRNA to mTOR were transfected respectively, as listed in the following table 3, as a positive control. At 48 hours after the transfection, cells were crushed, and total RNA was extracted using GeneJET RNA Purification Kit (Invitrogen). While using the extracted total RNA as a template, the same was subjected to reverse transcription into cDNA via RT-PCR reaction. Then, mRNA expression levels of AR and mTOR by each siRNA and by the double target siRNA set 1 (si-AT1) according to the present disclosure was identified via q-PCR reaction. To identify the mRNA expression levels, the mRNA of AR and mTOR in the cell lysates knocked down by PCR conditions of Table 6 was converted to cDNA using the primer set from Table 4 and the reaction mixture from Table 5. […]

[3] = test system: mTOR gene; assay: mTOR gene expression inhibition by siRNA transfection, RT-PCR/qPCR of mRNA (PC3 and h460 cell lines); type: cell-based, human; details: 80 pmole siRNA per well, 48 hours after transfection, normalized to GAPDH
Method: as §2

[4] = test system: H460 cell line; assay: Cancer cell death by double target siRNA and anticancer agent, MTT cell viability; type: cell-based
Method: as §1

[5] = anticancer agent without double target siRNA, cisplatin 50 uM, etoposide 20 uM or Taxol 1 uM, 16 hours
[6] = siRNA transfected, after 48 hours Taxol 1 uM for 16 hours
[7] = siRNA transfected, after 48 hours etoposide 20 uM for 16 hours

## COc1cc([C@@H]2c3cc4c(cc3[C@@H](O[C@@H]3O[C@@H]5CO[C@@H](C)O[C@H]5[C@H](O)[C@H]3O)[C@H]3COC(=O)[C@H]23)OCO4)cc(OC)c1O [etoposide, reference compound]
[1]; [5]
  cancer cell death (cell viability, MTT): a little anticancer activity

## N.N.[Cl][Pt][Cl] [cisplatin, reference compound]
[1]; [5]
  cancer cell death (cell viability, MTT): apoptosis effect was not achieved

## CC(=O)O[C@H]1C(=O)[C@@]2(C)[C@H]([C@H](OC(=O)c3ccccc3)[C@]3(O)C[C@H](OC(=O)[C@H](O)[C@@H](NC(=O)c4ccccc4)c4ccccc4)C(C)=C1C3(C)C)[C@]1(OC(C)=O)CO[C@@H]1C[C@@H]2O [taxol, reference compound]
[1]; [5]
  cancer cell death (cell viability, MTT): a little anticancer activity

## si-AT1: AR and mTOR double target double strand siRNA, 20mer, SEQ ID NOs: 1 and 2 (chain 1 GCUGCUGCUGCUGCCUGGGG; chain 2 CCCCAUGCAGCUGCAGCAGC; listed as RNA, chemistry not given here)
[2]; PC3 cells
  mRNA expression level of AR: reduced
[2]; h460 cell line
  mRNA expression level of AR: reduced
[3]; PC3 cells
  mRNA expression level of mTOR: reduced
[3]; h460 cell line
  mRNA expression level of mTOR: reduced
[1]; siRNA alone ("no treat", no anticancer agent)
  cancer cell death (cell viability, MTT): caused apoptosis
[1]; [6]
  cancer cell death (cell viability, MTT): significant improvement in the DU145 cell death
[1]; siRNA transfected, after 48 hours cisplatin 50 uM for 16 hours
  cancer cell death (cell viability, MTT): induced the apoptosis
[1]; [7]
  cancer cell death (cell viability, MTT): significant improvement in the DU145 cell death
[4]; siRNA alone
  cancer cell death (cell viability, MTT): showed apoptosis effect
[4]; [6]
  cancer cell death (cell viability, MTT): significant anticancer activity
[4]; [7]
  cancer cell death (cell viability, MTT): significant anticancer activity
